Assay results as given in ChEMBL document CHEMBL5465560, “Selectivity Literature for EUbOPEN Chemogenomic Library” (2024).
Values belong to the compound of their own block, whether it stands above or below them.

Tests used:
[1] = target: SWI/SNF-related matrix-associated actin-dependent regulator of chromatin subfamily A member 2 (Homo sapiens, UniProt P51531); assay: Selectivity interaction (Human bromodomain panel (DSF assay)) EUB0000233b SMARCA2
[2] = test system: Tyrosine-protein kinase ABL1 (Homo sapiens), P00519 [M351T]; assay: (§1) Selectivity interaction (KinomeScan (DiscoverX)) EUB0000229b ABL1; conditions: at 1 µM
[3] = test system: Tyrosine-protein kinase ABL1 (Homo sapiens), P00519 [Y253F]; assay: as §1; conditions: at 1 µM
[4] = test system: Tyrosine-protein kinase ABL1 (Homo sapiens), P00519 [Q252H]; assay: as §1; conditions: at 1 µM
[5] = test system: Tyrosine-protein kinase ABL1 (Homo sapiens), P00519 [F317I]; assay: as §1; conditions: at 1 µM
[6] = test system: Tyrosine-protein kinase ABL1 (Homo sapiens), P00519 [F317L]; assay: as §1; conditions: at 1 µM
[7] = test system: Tyrosine-protein kinase ABL1 (Homo sapiens), P00519 [T315I]; assay: as §1; conditions: at 1 µM
[8] = target: High affinity nerve growth factor receptor (Homo sapiens, UniProt P04629); assay: Selectivity interaction (KinomeScan (DiscoverX)) EUB0000229b NTRK1; conditions: at 10 µM
Sequence of High affinity nerve growth factor receptor (P04629 33-796 limits assumed): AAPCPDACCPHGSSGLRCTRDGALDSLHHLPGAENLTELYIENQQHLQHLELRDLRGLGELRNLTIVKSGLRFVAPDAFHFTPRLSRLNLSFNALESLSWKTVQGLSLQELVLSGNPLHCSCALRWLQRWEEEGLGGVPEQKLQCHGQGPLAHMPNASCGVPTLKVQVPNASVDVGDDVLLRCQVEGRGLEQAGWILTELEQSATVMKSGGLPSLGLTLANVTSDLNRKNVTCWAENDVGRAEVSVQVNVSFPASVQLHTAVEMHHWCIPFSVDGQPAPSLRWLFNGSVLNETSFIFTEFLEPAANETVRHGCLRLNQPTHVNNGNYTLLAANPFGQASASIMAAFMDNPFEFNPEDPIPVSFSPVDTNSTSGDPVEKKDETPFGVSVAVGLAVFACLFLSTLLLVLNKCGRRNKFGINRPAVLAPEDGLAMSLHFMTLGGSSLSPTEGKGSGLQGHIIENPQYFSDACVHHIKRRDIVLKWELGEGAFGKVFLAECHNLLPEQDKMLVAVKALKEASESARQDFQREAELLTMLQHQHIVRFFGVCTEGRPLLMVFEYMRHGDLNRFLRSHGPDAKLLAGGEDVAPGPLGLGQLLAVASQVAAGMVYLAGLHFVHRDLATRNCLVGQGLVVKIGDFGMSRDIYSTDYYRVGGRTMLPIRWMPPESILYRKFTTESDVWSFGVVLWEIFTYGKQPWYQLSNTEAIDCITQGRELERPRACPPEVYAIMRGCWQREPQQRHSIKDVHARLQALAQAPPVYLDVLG

[9] = target: T1, Testis-specific serine/threonine-protein kinase 3 (Homo sapiens) (UniProt Q96PN8); assay: Selectivity interaction (KinomeScan (DiscoverX)) EUB0001079a TSSK3; conditions: at 1 µM
T1 sequence (whole entry): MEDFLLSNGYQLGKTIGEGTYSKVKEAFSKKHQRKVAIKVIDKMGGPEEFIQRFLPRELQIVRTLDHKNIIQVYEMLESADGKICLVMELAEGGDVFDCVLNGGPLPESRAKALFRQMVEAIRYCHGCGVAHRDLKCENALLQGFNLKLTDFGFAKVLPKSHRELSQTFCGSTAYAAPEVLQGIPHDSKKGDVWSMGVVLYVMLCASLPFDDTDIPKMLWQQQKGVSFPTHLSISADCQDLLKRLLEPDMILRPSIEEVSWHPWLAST

[10] = target: T2, 5-hydroxytryptamine receptor 3A (Homo sapiens) (UniProt P46098); assay: Selectivity interaction (GPCR panel (PDSP screen)) EUB0001079a HTR3A; conditions: at 10 µM
T2 sequence (whole entry): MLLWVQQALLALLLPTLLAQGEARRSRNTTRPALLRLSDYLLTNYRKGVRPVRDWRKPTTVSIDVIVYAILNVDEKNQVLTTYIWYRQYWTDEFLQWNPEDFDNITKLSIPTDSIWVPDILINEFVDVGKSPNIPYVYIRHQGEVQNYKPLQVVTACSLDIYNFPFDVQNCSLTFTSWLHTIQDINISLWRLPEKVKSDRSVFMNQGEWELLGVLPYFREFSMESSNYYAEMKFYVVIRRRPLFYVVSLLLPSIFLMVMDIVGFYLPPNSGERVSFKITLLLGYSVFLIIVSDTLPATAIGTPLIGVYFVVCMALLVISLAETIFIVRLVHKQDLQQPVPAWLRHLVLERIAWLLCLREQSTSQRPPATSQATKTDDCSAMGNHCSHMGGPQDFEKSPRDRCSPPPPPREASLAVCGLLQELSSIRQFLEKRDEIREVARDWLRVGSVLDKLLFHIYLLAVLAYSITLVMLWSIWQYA

[11] = target: T3, Dual specificity protein kinase TTK (Homo sapiens) (UniProt P33981); assay: Selectivity interaction (LanthaScreen Eu Kinase Binding Assay) EUB0001632a TTK; conditions: at 10 µM
T3 sequence (whole entry): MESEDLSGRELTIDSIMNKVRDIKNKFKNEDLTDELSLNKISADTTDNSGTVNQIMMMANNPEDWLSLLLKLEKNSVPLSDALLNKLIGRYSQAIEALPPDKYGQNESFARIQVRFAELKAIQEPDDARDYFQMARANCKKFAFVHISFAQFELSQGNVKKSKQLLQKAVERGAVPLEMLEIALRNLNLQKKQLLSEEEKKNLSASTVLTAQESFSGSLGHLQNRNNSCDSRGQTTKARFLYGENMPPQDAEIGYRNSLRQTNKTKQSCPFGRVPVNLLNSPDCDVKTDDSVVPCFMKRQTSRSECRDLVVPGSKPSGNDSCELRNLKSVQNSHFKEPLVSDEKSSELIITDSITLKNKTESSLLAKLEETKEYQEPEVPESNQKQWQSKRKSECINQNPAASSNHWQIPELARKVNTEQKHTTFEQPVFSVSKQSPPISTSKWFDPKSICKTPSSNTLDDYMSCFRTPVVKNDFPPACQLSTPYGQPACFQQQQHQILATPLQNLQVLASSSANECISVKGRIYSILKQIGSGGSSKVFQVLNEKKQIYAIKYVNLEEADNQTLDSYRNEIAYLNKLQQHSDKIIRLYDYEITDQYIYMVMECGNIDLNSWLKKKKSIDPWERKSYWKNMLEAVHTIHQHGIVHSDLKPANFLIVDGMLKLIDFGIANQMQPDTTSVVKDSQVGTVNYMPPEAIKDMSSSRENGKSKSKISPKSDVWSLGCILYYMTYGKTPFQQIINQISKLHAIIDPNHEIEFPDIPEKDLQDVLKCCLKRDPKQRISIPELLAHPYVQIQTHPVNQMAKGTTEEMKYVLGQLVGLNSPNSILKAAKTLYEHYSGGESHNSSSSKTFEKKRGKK

[12] = target: Cyclin-dependent kinase 14 (Homo sapiens) (UniProt O94921); assay: Selectivity interaction (KinomeScan (DiscoverX)) EUB0000666a CDK14; conditions: at 10 µM
Sequence of Cyclin-dependent kinase 14 (Homo sapiens) (O94921 whole entry): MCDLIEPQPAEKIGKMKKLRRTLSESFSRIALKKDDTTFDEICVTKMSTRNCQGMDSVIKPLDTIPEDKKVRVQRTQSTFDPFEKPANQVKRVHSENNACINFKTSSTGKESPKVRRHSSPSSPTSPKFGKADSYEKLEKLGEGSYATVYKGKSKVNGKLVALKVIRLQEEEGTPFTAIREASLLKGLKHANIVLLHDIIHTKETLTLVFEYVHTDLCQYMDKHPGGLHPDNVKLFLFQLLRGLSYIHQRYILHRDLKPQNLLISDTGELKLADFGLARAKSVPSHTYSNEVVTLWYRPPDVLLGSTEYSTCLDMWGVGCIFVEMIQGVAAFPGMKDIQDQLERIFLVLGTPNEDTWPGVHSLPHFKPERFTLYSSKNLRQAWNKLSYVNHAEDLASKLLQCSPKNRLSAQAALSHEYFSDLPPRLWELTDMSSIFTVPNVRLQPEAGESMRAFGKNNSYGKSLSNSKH

[13] = target: Insulin receptor-related protein (Homo sapiens) (UniProt P14616); assay: Selectivity interaction (KinomeScan (DiscoverX)) EUB0000666a INSRR; conditions: at 10 µM
[14] = target: cGMP-inhibited 3',5'-cyclic phosphodiesterase 3A (Homo sapiens, UniProt Q14432); assay: Selectivity interaction (Panel of non-epigenetic targets (kinases, GPCRs, ion channels, and transporters, Eurofins) ) EUB0000271b PDE3A; conditions: at 1 µM
[15] = target: Mitogen-activated protein kinase 14 (Homo sapiens, UniProt Q16539); assay: Selectivity interaction (Millipore kinase profiler) EUB0000124b MAPK14; conditions: at 10 µM
Sequence of Mitogen-activated protein kinase 14 (Q16539 whole entry): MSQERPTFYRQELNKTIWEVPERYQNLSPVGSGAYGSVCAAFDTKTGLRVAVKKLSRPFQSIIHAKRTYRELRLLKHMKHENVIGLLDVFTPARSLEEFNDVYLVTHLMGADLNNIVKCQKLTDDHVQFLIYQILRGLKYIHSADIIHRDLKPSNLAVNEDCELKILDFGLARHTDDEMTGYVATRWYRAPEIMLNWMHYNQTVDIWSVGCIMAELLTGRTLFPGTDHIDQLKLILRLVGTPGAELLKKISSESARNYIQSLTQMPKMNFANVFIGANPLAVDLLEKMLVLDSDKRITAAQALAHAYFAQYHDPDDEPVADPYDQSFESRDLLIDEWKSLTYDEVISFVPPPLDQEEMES

[16] = test system: Angiopoietin-1 receptor (Homo sapiens), Q02763 [Y897S]; assay: (§2) Selectivity interaction (ProQinase) EUB0000171b TEK
Sequence of Angiopoietin-1 receptor (Homo sapiens), Q02763 [Y897S] (Q02763 whole entry Y897S): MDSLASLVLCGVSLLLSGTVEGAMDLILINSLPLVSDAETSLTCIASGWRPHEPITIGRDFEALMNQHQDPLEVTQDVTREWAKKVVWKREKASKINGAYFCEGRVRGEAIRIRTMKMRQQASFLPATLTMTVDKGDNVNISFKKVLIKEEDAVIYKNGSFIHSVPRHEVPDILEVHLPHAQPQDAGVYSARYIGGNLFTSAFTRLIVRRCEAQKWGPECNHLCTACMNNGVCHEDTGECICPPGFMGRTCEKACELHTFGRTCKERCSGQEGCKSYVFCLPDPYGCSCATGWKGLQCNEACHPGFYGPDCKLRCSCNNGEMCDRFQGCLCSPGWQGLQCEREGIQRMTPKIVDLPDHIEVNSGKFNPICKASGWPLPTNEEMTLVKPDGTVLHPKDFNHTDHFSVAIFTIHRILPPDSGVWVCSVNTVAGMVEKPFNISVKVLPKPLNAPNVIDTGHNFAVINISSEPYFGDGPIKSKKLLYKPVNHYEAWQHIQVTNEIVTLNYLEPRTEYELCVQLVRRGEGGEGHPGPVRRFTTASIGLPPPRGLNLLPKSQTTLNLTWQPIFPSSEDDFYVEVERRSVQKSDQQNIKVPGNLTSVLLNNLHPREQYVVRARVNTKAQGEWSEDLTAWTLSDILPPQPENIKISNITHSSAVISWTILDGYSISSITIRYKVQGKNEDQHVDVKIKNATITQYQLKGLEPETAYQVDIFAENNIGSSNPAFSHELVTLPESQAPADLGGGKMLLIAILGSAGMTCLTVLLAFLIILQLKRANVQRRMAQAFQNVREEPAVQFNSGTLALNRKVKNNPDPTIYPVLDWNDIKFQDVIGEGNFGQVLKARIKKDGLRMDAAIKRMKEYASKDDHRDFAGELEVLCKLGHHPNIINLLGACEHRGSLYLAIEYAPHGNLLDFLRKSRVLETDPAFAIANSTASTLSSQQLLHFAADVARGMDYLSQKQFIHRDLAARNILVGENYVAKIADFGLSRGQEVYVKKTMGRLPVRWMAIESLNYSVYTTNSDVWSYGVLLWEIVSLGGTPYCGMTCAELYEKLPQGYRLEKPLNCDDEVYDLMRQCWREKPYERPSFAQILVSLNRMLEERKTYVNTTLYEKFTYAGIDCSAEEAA

[17] = target: Angiopoietin-1 receptor (Homo sapiens) (UniProt Q02763); assay: as §2
Sequence of Angiopoietin-1 receptor (Homo sapiens) (Q02763 whole entry): as the sequence (Q02763 whole entry Y897S) above, with S897Y counted along it

[18] = test system: Angiopoietin-1 receptor (Homo sapiens), Q02763 [R849W]; assay: as §2
Sequence of Angiopoietin-1 receptor (Homo sapiens), Q02763 [R849W] (Q02763 whole entry R849W): as the sequence (Q02763 whole entry Y897S) above, with R849W, S897Y counted along it

[19] = target: Tyrosine-protein kinase JAK1 (Homo sapiens, UniProt P23458); assay: Selectivity interaction (KinomeScan (DiscoverX)) EUB0001619a JAK1; conditions: at 1 µM
[20] = target: Tyrosine-protein kinase CSK (Homo sapiens) (UniProt P41240); assay: Selectivity interaction (Kinase panel (Invitrogen)) EUB0000639a CSK; conditions: at 200 nM
Sequence of Tyrosine-protein kinase CSK (Homo sapiens) (P41240 2-450 limits assumed): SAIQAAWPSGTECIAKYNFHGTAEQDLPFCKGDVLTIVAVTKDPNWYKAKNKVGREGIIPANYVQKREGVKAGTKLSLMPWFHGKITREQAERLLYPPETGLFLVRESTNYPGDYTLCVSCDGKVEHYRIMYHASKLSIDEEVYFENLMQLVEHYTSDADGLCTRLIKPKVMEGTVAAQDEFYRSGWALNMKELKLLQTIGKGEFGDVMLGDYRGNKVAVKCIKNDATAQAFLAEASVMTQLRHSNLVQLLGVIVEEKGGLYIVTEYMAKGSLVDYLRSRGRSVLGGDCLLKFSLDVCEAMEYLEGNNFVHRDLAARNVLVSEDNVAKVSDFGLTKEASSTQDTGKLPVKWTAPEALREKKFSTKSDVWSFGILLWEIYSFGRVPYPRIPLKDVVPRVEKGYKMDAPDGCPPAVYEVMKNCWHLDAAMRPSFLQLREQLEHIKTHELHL

[21] = target: Ribosomal protein S6 kinase alpha-1 (Homo sapiens, UniProt Q15418); assay: Selectivity interaction (ActivX KiNativ screen (kinase selectivity in THP-1 cell lysates)) EUB0000639a RPS6KA1; assay type: subcellular; conditions: lysate, at 0.2 µM
Sequence of Ribosomal protein S6 kinase alpha-1 (Q15418 whole entry): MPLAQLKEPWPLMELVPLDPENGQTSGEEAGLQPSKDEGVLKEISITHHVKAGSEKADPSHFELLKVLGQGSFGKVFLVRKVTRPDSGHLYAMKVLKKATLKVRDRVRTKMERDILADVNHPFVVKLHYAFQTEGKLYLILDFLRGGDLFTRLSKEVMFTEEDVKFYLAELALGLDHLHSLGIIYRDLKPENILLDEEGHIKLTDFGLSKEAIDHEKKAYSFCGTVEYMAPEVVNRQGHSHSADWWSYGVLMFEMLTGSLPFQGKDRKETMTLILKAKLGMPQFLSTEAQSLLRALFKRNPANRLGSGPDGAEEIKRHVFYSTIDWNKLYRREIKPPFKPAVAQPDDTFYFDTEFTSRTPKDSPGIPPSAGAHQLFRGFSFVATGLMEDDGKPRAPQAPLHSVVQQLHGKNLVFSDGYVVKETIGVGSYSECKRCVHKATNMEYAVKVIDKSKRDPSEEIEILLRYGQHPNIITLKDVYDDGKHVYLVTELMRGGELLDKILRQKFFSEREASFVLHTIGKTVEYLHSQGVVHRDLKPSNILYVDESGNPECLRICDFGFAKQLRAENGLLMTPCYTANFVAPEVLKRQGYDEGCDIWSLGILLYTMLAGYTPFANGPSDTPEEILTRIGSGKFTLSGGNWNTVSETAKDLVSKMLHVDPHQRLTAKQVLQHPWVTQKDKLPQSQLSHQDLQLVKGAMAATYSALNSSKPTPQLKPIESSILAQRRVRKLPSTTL

Structure (SMILES): COc1cc(N(C)c2ccnc3ccc(C(F)(F)F)cc23)cc(OC)c1OC
% binding [2]: 92% | % binding [3]: 69% | % binding [4]: 44% | % binding [5]: 93% | % binding [6]: 83% | % binding [7]: 81% | % binding [8]: 96%

Structure (SMILES): Nc1cnc(N2CCc3cc(S(=O)(=O)Nc4c(F)cc(Cl)cc4F)cc(N4CCCC4=O)c32)nc1 [TP-020n]
% of control [9]: 100% | % of inhibition [10]: 0.32%

Structure (SMILES): O=C(NOC[C@H](O)CO)c1ccc(F)c(F)c1Nc1ccc(I)cc1F
% of control [12]: 100% | % of control [13]: 81%

Structure (SMILES): Cc1cc(C)cc([C@@H]2c3cc(C)ccc3NC(=O)CN2C(=O)c2ccc(Br)s2)c1
% of inhibition [14]: -11%

Structure (SMILES): N#Cc1cccc(-c2c[nH]c3ncnc(N4CCOCC4)c23)c1
% of control [19]: 100%

Continued, values first:

dTM [1]: < 2 K
Structure (SMILES): CN(C)CCCOc1ccc(-c2cc(NCCCn3cccn3)nc(S(C)(=O)=O)n2)cc1

% of inhibition [11]: -54.1%
Structure (SMILES): Cn1cc(-n2cnc3c(NCc4nc5cc(Cl)c(Cl)cc5[nH]4)nc(N4CCOCC4)nc32)cn1

% of control [15]: 84%
Structure (SMILES): CC(=O)Nc1cccc(-n2c(=O)n(C3CC3)c(=O)c3c(Nc4ccc(I)cc4F)n(C)c(=O)c(C)c32)c1

% of control ([16]; at 1 µM): 85% | % of control ([16]; at 5 µM): 85% | % of control ([17]; at 1 µM): 85% | % of control ([17]; at 5 µM): 81% | % of control ([18]; at 1 µM): 92% | % of control ([18]; at 5 µM): 107%
Structure (SMILES): C=CC(=O)Nc1cccc(C(=O)Nc2ccc(Nc3cc(-c4[nH]c(SC)nc4C)ccn3)cc2)c1

% of inhibition [20]: 11.4% | % of inhibition [21]: 10.3%
Structure (SMILES): CC[C@@H]1[C@H](F)C(=O)N[C@@H]1COc1nccc2cc(C(N)=O)c(OC)cc12 [ZIMLOVISERTIB]
